Tested on: GM-CSF-producing CD4-positive memory T-cells
Assay: GM-CSF-producing CD4-positive memory T-cells in PBMCs of MS patients after single oral dose (FACS)
Type: in vivo, human
Settings: 0.3 mg single oral
Method: A single dose of compound 31, which is a synthetic glycolipid of the present invention, described in the first aspect was orally administered to each of 2 MS patients (subjects) shown in Table 2 above after obtainment of informed consent. The dose was set to 0.3 mg per person.
Subsequently, T-cell subfractions were prepared from the peripheral blood of each subject by using the density gradient centrifugation method. First, a total of 20 mL of blood was collected from the vein of each subject 24 hours (1st day), 48 hours (2nd day), 72 hours (3rd day), 168 hours (7th day), and 192 hours (8th day) after the administration of compound 31 by using two 10-mL heparin sodium-containing vacuum blood collection tubes. For a control, 20 mL of blood was similarly collected from the vein of each subject one day before the administration of compound 31.
Hereinafter, peripheral blood mononuclear cells (PBMCs) were collected by the same operation as in Example 1.
The collected PBMCs were stained with antibodies by the following method. First, 10 μL of a solution consisting of 8 μL of PBS containing 0.5% BSA/2 mM EDTA-2Na, 0.5 μL of APC-Cy7-anti-CD3 antibody (BioLegend, Inc.), 0.5 μL of ECD-anti-CD8 antibody (Beckman Coulter, Inc.), and 1 μL of PB-anti-CD45RA antibody (BioLegend, Inc.) was added to 2×10^6 cells of PBMCs, thoroughly mixed by vortexing, and then left on ice for 10 minutes. CD3 is a detection marker of T-cells, and CD3^+ cells indicate being T-cells. Also, CD45RA is a detection marker of naive T-cells, and CD45RA^+ cells indicate being naive T-cells. Also, CD45RA^− cells indicate being memory T-cells. Furthermore, CD8^− cells indicate being CD4^+ cells. 1 mL of PBS containing 0.5% BSA/2 mM EDTA-2Na was added, and after centrifugation at 1500 rpm for 5 minutes, a supernatant was removed by suction. Next, 100 μL of BD FIX buffer (Becton, Dickinson and Company) was added dropwise while vortexed, and then left on ice for 20 minutes. 1 mL of MACS buffer was added again, and after centrifugation at 1500 rpm for 5 minutes, a supernatant was removed by suction. Subsequently, 1 mL of 0.1% saponin was added, and the resultant was left at room temperature under light shielding for 2 minutes.
Subsequently, the resultant was dispensed as 250 μL (I group) and 750 μL (II group), and after centrifugation at 2200 rpm for 5 minutes, a supernatant was removed by suction.
For group I, 11 μL of a solution consisting of 7 μL of 0.1% saponin, 1 μL of PerCP-Cy5.5-anti-mouse IgG1 antibody (BioLegend, Inc.), 1 μL of Alexa 488-anti-mouse IgG1 antibody (BioLegend, Inc.), 1 μL of APC-anti-mouse IgG1 antibody (BioLegend, Inc.), and 1 μL of PE-anti-rat IgG1 antibody (Becton, Dickinson and Company) was added, thoroughly mixed by vortexing, and then left on ice for 10 minutes. […]

CCCCCCCCCCCCCCCCCCCCCCCC(=O)NC(COC1OC(CO)C(O)C(O)C1O)[C@H](O)C(O)CCCCC (stereo in doubt) [compound 31, (2S,3S,4R)-1-O-(α-D-galactosyl)-2-(N-tetracosanoylamino)-1,3,4-nonanetriol]
proportion of GM-CSF-producing CD4-positive memory T-cells in PBMCs (after administration vs day-1): decreased | Abundance ratio of mCD4T (%) (day 1, GM-CSF-producing CD4-positive memory T-cells in PBMCs, day −1 value 9.64): 6.035% | Abundance ratio of mCD4T (%) (day 3, day −1 value 9.64): 6.76% | Abundance ratio of mCD4T (%) (day 7, day −1 value 9.64): 14.325%

— patent publication US12447167B2, “GM-CSF-producing t-cell control agent and Th1/Th2 immune balance regulator” (National Center of Neurology and Psychiatry, priority 2014, dated 2025)
